{"source": "patent US20250319052A1", "about": "“TREATMENT WITH HIGHLY PURIFIED EICOSAPENT AENOIC ACID AS FREE FATTY ACID IMPROVES INFLAMMATION, AFFECTS COLONIC DIFFERENTIATION MARKERS AND MICROBIOTA IN PATIENTS WITH ULCERATIVE COLITIS” (KD SWISS GMBH, priority 2019, published 2025)", "assay": "Membrane fatty acid analysis in red blood cells (GC-MS) of UC patients given EPA-FFA", "assay_type": "in vivo, human", "protocol": "A study will be conducted with patients having long-standing UC. Specifically, about 20 long-standing UC patients in stable clinical remission (SCCAI=0) and with fecal calprotectin (FC)>150 μg/g measured in stools are recruited and treated with 2 g/day of EPA-FFA for 90 days. Biopsies and biological samples are collected at the entry (TO) and at the end of the study (T3). Compliance is evaluated by EPA incorporation into red blood cell membranes. Protein levels of Jagged1, Hes1, STAT3, phospho-STAT3 and KLF-4 are determined by western blotting. IL-22, IL-10 and SOCS3 mRNA levels are analyzed by qRT-PCR. Goblet cells are stained by Alcian blue. Microbiota analyses are performed on fecal and biopsies DNA samples sequencing the V3-V4 region of the bacterial 16S rRNA gene. As a reference, a healthy adult population is used. Endoscopic and histologic disease activities are measured by Mayo and Geboes scores respectively.\nSince EPA can be converted into the m-3 PUFA docosahexaenoic acid (DHA) in vivo through docosapentaenoic acid (DPA) (19), the overall ω-3 PUFAs content is also measured including EPA, DPA and DHA, in the patients.\nEligible patients are asymptomatic subjects aged 18-70 years with long-standing (≥8 years) UC, in stable clinical remission (simple clinical colitis activity index; SCCAI=0), and FC levels higher than 150 μg/g (53). Exclusion criteria are (1) recent use of steroids (<2 months) or other experimental drugs (<3 months); (2) concomitant use of anticoagulants; (3) probiotic use; (4) pregnancy or breast-feeding; (5) known or suspected hypersensitivity to eicosapentaenoic acid or ω-3 PUF As; and (6) severe co-morbidities. […] Adherence to EPA-FFA supplementation is evaluated both by capsule counting and assessing EPA incorporation into red blood cell (RBC) membranes. […]\nMembrane fatty acids content is measured in RBCs. […] Extracted fatty acid methyl-esters are then analyzed by gas-chromatography mass-spectrometry (GC-MS). Fatty acid levels are expressed as relative percentages of total fatty acids.", "key": {"[1]": {"conditions": "short-term EPA-FFA supplementation, long-standing UC patients"}}}
{"smiles": "CC/C=C\\C/C=C\\C/C=C\\C/C=C\\C/C=C\\CCCC(=O)O", "note": "[EPA-FFA, eicosapentaenoic acid]", "values": [{"measurement": "EPA in RBC-purified membranes", "setting": "UC patients, 2 g/day EPA-FFA for 90 days", "result": "significant increase"}, {"measurement": "EPA and overall ω-3 PUFAs content (EPA, DPA and DHA) into RBCs", "setting": "[1]", "result": "increase"}, {"measurement": "patients who incorporated EPA into RBCs", "setting": "[1]", "result": "17/19"}]}
